According to patent US5008401A, “Cyanine compounds” (Asahi Chemical Co., Ltd., priority 1990, dated 1991):

What was measured:
[1] = Test for solubility in solvent; format: physicochemical; settings: for Solubility: methanol, room temperature
Method: Each of cyanine dyes as shown below in Table 2 was dissolved in methanol and the solubility was determined at room temperature with the results indicated below in Table 2.

[2] = Absorption maximum (λmax) and molar absorptivity (ε) in solution; format: physicochemical

| SMILES | Solubility [1] | ε ([2]; diacetone alcohol) [cm⁻¹] | λmax ([2]; diacetone alcohol) [nm] | also measured |
| --- | --- | --- | --- | --- |
| CCOc1cc(C)c2c(c1)C(C)(C)C(=CC=CC=CC1=[N+](CC)c3c(C)cc(OCC)cc3C1(C)C)N2CC [Preparation Example 7] |  |  |  | ε ([2]; dichloroethane): 1.75×10^5 cm^-; λmax ([2]; dichloroethane): 681 nm |
| CCOc1ccc2c(c1)C(C)(C)C(=CC=CC=CC=CC1=[N+](C)c3ccc(OCC)cc3C1(C)C)N2C [Compound A, reference compound] | up to 10 g/1 |  |  | solubility in solvents (in words) [1]: does not exhibit good solubility in solvents |
| CCCCN1C(=CC=CC=CC2=[N+](CCCC)c3cc(OC)c(OC)cc3C2(C)C)C(C)(C)c2cc(OC)c(OC)cc21 [Preparation Example 11] | at least 30 g/1 | 162000 | 703 |  |
| CCCN1C(=CC=CC=CC2=[N+](CCC)c3cc(C)c(OC)cc3C2(C)C)C(C)(C)c2cc(OC)c(C)cc21 [Preparation Example 6] | at least 30 g/1 | 174000 | 683 |  |
| COCN1C(=CC=CC=CC2=[N+](COC)c3cc(OC)c(OC)cc3C2(C)C)C(C)(C)c2cc(OC)c(OC)cc21 [Preparation Example 3] | at least 30 g/1 | 160000 | 702 |  |
| CCOc1cc(OCC)c2c(c1)C(C)(C)C(=CC=CC=CC1=[N+](CC)c3c(OCC)cc(OCC)cc3C1(C)C)N2CC [Preparation Example 2] |  |  |  | ε ([2]; dichloromethane): 1.72×10^5 cm^-; λmax ([2]; dichloromethane): 698 nm |
| CCOc1ccc2c(c1)C(C)(C)C(=CC=CC=CC1=[N+](C)c3ccc(OCC)cc3C1(C)C)N2C [Compound B, reference compound] | up to 10 g/1 |  |  | solubility in solvents (in words) [1]: not satisfactory in solubility in solvents |
| CCCCN1C(=CC=CC=CC2=[N+](CCCC)c3cc(OC)c(OC)cc3C2(C)C)C(C)(C)c2cc(OC)c(OC)cc21 [Preparation Example 12] |  |  |  | ε ([2]; dichloromethane): 161000 cm⁻¹; λmax ([2]; dichloromethane): 699 nm |

Continued, in another order:

| Solubility [1] | ε ([2]; diacetone alcohol) [cm⁻¹] | λmax ([2]; diacetone alcohol) [nm] | SMILES | also measured |
| --- | --- | --- | --- | --- |
| 30 g/1 |  |  | CCN1C(=CC=CC=CC2=[N+](CC)c3c(OC)cc(OC)cc3C2(C)C)C(C)(C)c2cc(OC)cc(OC)c21 [Preparation Example 1] |  |
|  | 162000 | 681 | COc1cc(C(C)C)c2c(c1)C(C)(C)C(=CC=CC=CC1=[N+](C)c3c(C(C)C)cc(OC)cc3C1(C)C)N2C [Preparation Example 10] |  |
| at least 30 g/1 | 180000 | 695 | COCCN1C(=CC=CC=CC2=[N+](CCOC)c3c(OC)cc(OC)cc3C2(C)C)C(C)(C)c2cc(OC)cc(OC)c21 [Preparation Example 14] |  |
|  | 182000 | 681 | CCc1cc(OC)cc2c1N(CC)C(=CC=CC=CC1=[N+](CC)c3c(CC)cc(OC)cc3C1(C)C)C2(C)C [Preparation Example 9] |  |
|  |  | 683 | CCCOc1cc(C)c2c(c1)C(C)(C)C(=CC=CC=CC1=[N+](CC)c3c(C)cc(OCCC)cc3C1(C)C)N2CC [Preparation Example 8] |  |
|  | 184000 | 679 | COc1cc(C)c2c(c1)C(C)(C)C(=CC=CC=CC1=[N+](CCO)c3c(C)cc(OC)cc3C1(C)C)N2CCO [Preparation Example 4] |  |
|  | 185000 | 679 | COCCN1C(=CC=CC=CC2=[N+](CCOC)c3c(C)cc(OC)cc3C2(C)C)C(C)(C)c2cc(OC)cc(C)c21 [Preparation Example 5] |  |
|  | 175000 | 693 | COc1cc(OC)c2c(c1)C(C)(C)C(=CC=CC=CC1=[N+](CCOC(C)=O)c3c(OC)cc(OC)cc3C1(C)C)N2CCOC(C)=O [Preparation Example 13] |  |
